Where two headings read alike, the source gives them in different places. Peptide text beside a SMILES is read from it. * marks the point of attachment. Cbz = O=C(OCc1ccccc1)*; CH2F = FC*
What was measured:
OCI-Ly18 = test: Combination synergy, Cell Titer Glo, 72 hours; type: cell-based; details: Homo sapiens, OCI-Ly18, 72 h
Experimental: (§1) Synergistic anti-tumor activity in DLBCL cell lines was determined using the Cell Titer Glo assay. Briefly, 5,000 cells were plated in 96 well plates in complete tissue culture media. […] Cells were incubated with or without drug for 72 hours in a 37° C. tissue culture incubator prior to evaluation by CellTiter Glo as per the manufacturer protocol (Promega). Synergy was evaluated by calculating a combination index score, as described elsewhere (Jacquement et al, Molecular Cancer 2012) following IC50 determination using Prism software. The compounds are commercially available or are made according to synthetic methods known to those skilled in the art.

Lyl (OCI-Lyl) = test: Combination synergy, Cell Titer Glo, 72 hours; type: cell-based
Experimental: as §1, with “calculating” for “calculating a”
as §1

DHL6 [1] = test: Combination synergy, Cell Titer Glo, 72 hours; type: cell-based
Experimental: as §1, with “calculating” for “calculating a”
as §1

DHL10 [2] = test: Combination synergy, Cell Titer Glo, 72 hours; type: cell-based
Experimental: as §1, with “calculating” for “calculating a”
as §1

VAL [3] = test: Combination synergy, Cell Titer Glo, 72 hours; type: cell-based
Experimental: as §1, with “calculating” for “calculating a”
as §1

DHL4 (SU-DHL4) = test: Combination synergy, Cell Titer Glo, 72 hours; type: cell-based; details: Homo sapiens
Experimental: as §1, with “calculating” for “calculating a”
as §1

[4] = system: WT BTK-transfected TMD8 cells; test: Cell count and viability of transfected TMD8 cells; type: cell-based; details: 250 nM; 7 days
Excerpt: (§2) Cell transfection, cell count and viability assay: TMD8 cells were transfected with constructs of WT BTK or BTK^C481S mutants using kit V, Program U-13 on Amaxa Nucleofector, according to the manufacturer's protocols (Amaxa, Cologne, Germany). After transfection, the cells were co-cultured with NKTert cells in a 24-well plate for 24 hrs for recovery.

[5] = system: BTK^C481S-transfected TMD8 cells; test: Cell count and viability of transfected TMD8 cells; type: cell-based; details: 250 nM; 7 days
Excerpt: as §2

U2932 [6] = test: DLBCL cell line viability, CellTiter Glo, ten-point curve; type: cell-based; details: Homo sapiens, read-out: IC50 of Kinase Inhibitor in Cell Titer Glo Assay
Excerpt: (§3) Each IC50 value is an average of at least four replicate experiments.

RCK8 = test: as above; type: cell-based; details: Homo sapiens; RCK8 cell line; read-out: IC50 of Kinase Inhibitor in Cell Titer Glo Assay
Excerpt: as §3

DHL4 = test: as above; type: cell-based; details: read-out: IC50 of Kinase Inhibitor in Cell Titer Glo Assay
Excerpt: as §3

LY18 = test: as above; type: cell-based; details: read-out: IC50 of Kinase Inhibitor in Cell Titer Glo Assay
Excerpt: as §3

DHL8 = test: as above; type: cell-based; details: read-out: IC50 of Kinase Inhibitor in Cell Titer Glo Assay
Excerpt: as §3

LY1 = test: as above; type: cell-based; details: read-out: IC50 of Kinase Inhibitor in Cell Titer Glo Assay
Excerpt: as §3

LY10 (OCI-LY10) = test: as above; type: cell-based; details: LY10 cell line; read-out: IC50 of Kinase Inhibitor in Cell Titer Glo Assay
Excerpt: as §3

DHL10 [7] = test: as above; type: cell-based; details: read-out: IC50 of Kinase Inhibitor in Cell Titer Glo Assay
Excerpt: as §3

LY7 = test: as above; type: cell-based; details: read-out: IC50 of Kinase Inhibitor in Cell Titer Glo Assay
Excerpt: as §3

DHL6 [8] = test: as above; type: cell-based; details: read-out: IC50 of Kinase Inhibitor in Cell Titer Glo Assay
Excerpt: as §3

VAL [9] = test: as above; type: cell-based; details: read-out: IC50 of Kinase Inhibitor in Cell Titer Glo Assay
Excerpt: as §3

TOLEDO [10] = test: as above; type: cell-based; details: Homo sapiens; TOLEDO cell line; read-out: IC50 of Kinase Inhibitor in Cell Titer Glo Assay
Excerpt: as §3

DB = test: as above; type: cell-based; details: Homo sapiens; DB cell line; read-out: IC50 of Kinase Inhibitor in Cell Titer Glo Assay
Excerpt: as §3

DLCL2 = test: as above; type: cell-based; details: read-out: IC50 of Kinase Inhibitor in Cell Titer Glo Assay
Excerpt: as §3

DHL5 = test: as above; type: cell-based; details: read-out: IC50 of Kinase Inhibitor in Cell Titer Glo Assay
Excerpt: as §3

primary CLL cells = test: Apoptosis in primary CLL samples, propidium iodide/Annexin V staining and PARP cleavage; type: cell-based, human; details: co-treatment with cerdulatinib
CLL primary cells = test: CLL cell viability with IL-4/CD40L, PI/Annexin V staining; type: cell-based, human
Experimental: Viability was assessed using (A) PI/Annexin V staining by flow cytometry. A representative plot is shown or (B) summarized (n=9) showing % of control (PI/Annexin V negative cells). […] Points below the diagonal line represent synergistic interactions, above the line are additive.
Values above the diagonal line represent additive interaction and those under the line are synergistic.

U2932 [11] = test: Combination synergy, Cell Titer Glo, 72 hours; type: cell-based; details: Homo sapiens
Experimental: as §1, with “calculating” for “calculating a”

TOLEDO [12] = test: Combination synergy, Cell Titer Glo, 72 hours; type: cell-based; details: Homo sapiens
Experimental: as §1, with “calculating” for “calculating a”

| Compound | IC50 (Lyl (OCI-Lyl)) [nM] | IC50 (DHL6 [1]) [nM] | IC50 (DHL10 [2]) [nM] | IC50 (VAL [3]) [nM] | IC50 (DHL4 (SU-DHL4); SU-DHL-4, 72 h, read-out: IC50) [nM] | IC50 (U2932 [6]) [nM] | IC50 (RCK8) [nM] | IC50 (DHL4) [nM] | IC50 (LY18) [nM] | IC50 (DHL8) [nM] | IC50 (LY1) [nM] | IC50 (LY10 (OCI-LY10)) [nM] | IC50 (DHL10 [7]) [nM] | IC50 (LY7) [nM] | IC50 (DHL6 [8]) [nM] | IC50 (VAL [9]) [nM] | IC50 (TOLEDO [10]) [nM] | IC50 (DB) [nM] | IC50 (DLCL2) [nM] | IC50 (DHL5) [nM] | also measured |
| --- | --- | --- | --- | --- | --- | --- | --- | --- | --- | --- | --- | --- | --- | --- | --- | --- | --- | --- | --- | --- | --- |
| C=CC(=O)N1CCC[C@@H](n2nc(-c3ccc(Oc4ccccc4)cc3)c3c(N)ncnc32)C1 [Ibrutinib, 1-[(3R)-3-[4-Amino-3-(4-phenoxyphenyl)-1H-pyrazolo[3,4-d]pyrimidin-1-yl]piperidin-1-yl]prop-2-en-1-one, reference compound] | 750 | 310 | 1890 | 4560 | 3100 | – | – | – | – | – | – | – | – | – | – | – | – | – | – | – | IC50 (OCI-Ly18): 1240 nM; cell growth [4]: similarly inhibited; cell growth [5]: less sensitive |
| COc1cccc2c1C(=O)c1c(O)c3c(c(O)c1C2=O)C[C@@](O)(C(=O)CO)C[C@@H]3O[C@H]1C[C@H](N)[C@H](O)[C@H](C)O1 [Doxo, Doxorubicin] | – | – | – | – | – | 350 | 200 | 100 | 60 | 150 | 190 | 40 | 300 | 140 | 140 | 220 | 440 | 370 | 180 | 30 | – |
| CC(NC(=O)C(NC(=O)OCc1ccccc1)C(C)C)C(=O)NC(CC(=O)O)C(=O)CF (stereo not drawn) [ZVAD, reference compound] (Cbz-Val-Ala-Asp-CH2F; configuration not given here) | – | – | – | – | – | – | – | – | – | – | – | – | – | – | – | – | – | – | – | – | cerdulatinib induced apoptosis on co-treatment (primary CLL cells): inhibited |
| C[C@H](Nc1ncnc2nc[nH]c12)c1cc2cccc(Cl)c2c(=O)n1-c1ccccc1 [IPI-145] | – | – | – | – | – | 27000 | ≥ 50000 | 3700 | 960 | 45000 | 1300 | 5700 | 4100 | 25000 | 2 | 21000 | 18000 | ≥ 50000 | 5000 | 330 | – |
| CC1(C)CCC(CN2CCN(c3ccc(C(=O)NS(=O)(=O)c4ccc(NCC5CCOCC5)c([N+](=O)[O-])c4)c(Oc4cnc5[nH]ccc5c4)c3)CC2)=C(c2ccc(Cl)cc2)C1 [ABT-199, 4-(4-{[2-(4-chlorophenyl)-4,4-dimethylcyclohex-1-en-1-yl]methyl}piperazin-1-yl)-N-({3-nitro-4-[(tetrahydro-2H-pyran-4-ylmethyl)amino]phenyl}-sulfonyl)-2-(1H-pyrrolo[2,3-b]pyridin-5-yloxy)benzamide, reference compound] | 750 | 23 | 3700 | 4300 | 1630 | – | – | – | – | – | – | – | – | – | – | – | – | – | – | – | CLL cell viability (CLL primary cells; IL-4/CD40L for 6 hours, then drug for 24 hours, n=9): protected CLL cells against ABT-199 induced apoptosis; CLL cell viability (CLL primary cells; absence of IL-4/CD40L, 24 hours): significantly reduced CLL cell viability; IC50 (U2932 [11]; U2932, 72 h, read-out: IC50): 490 nM; IC50 (U2932 [11]; U2932 cell line, read-out: IC50 value): 490 nM; IC50 (TOLEDO [12]): 230 nM; IC50 (DHL4 (SU-DHL4); SU-DHL-4, SU-DHL4 cell line, read-out: IC50 value): 1630 nM |
| CC[C@H](Nc1ncnc2[nH]cnc12)c1nc2cccc(F)c2c(=O)n1-c1ccccc1 [Idelalisib] | – | – | – | – | – | 40000 | ≥ 50000 | 12000 | 3800 | 49000 | 4900 | 12000 | 12000 | 13000 | 30 | 29000 | ≥ 50000 | 42000 | 15000 | 1300 | – |
